Patent US9127027B2, “Epoxyeicosatrienoic acid analogs and methods of making and using the same” (The Medical College of Wisconsin, Inc., priority 2011, dated 2015)

Tests used:
bovine coronary artery = test: Vasorelaxant activity in bovine coronary artery rings precontracted with U-46619; format: cell-based; settings: Bos taurus
Procedure: Vasorelaxant activity was measured in bovine coronary artery. Bovine hearts were obtained and the left anterior descending coronary artery was dissected and cleaned of connective tissue. Vessels of 1 mm diameter were cut into rings of 3 mm width as previously described (3, 27, 39). […] The vessels were suspended from a pair of stainless steel hooks in a 6-ml water-jacketed organ chamber. […] One hook was anchored to a steel rod and the other hook to a force transducer (model FT-03C; Grass Instruments, West Warwick, R.I.). Tension of the vessel was measured by an ETH-400 bridge amplifier, and the data were acquired with a MacLab 8e analog-to-digital converter and MacLab software version 3.5.6 (AD Instruments, Milford, Mass.) and stored on a Macintosh computer for subsequent data analysis.
Basal tension was set at the length-tension maximum of 3.5 g and equilibrated for 1.5 h. KCl (40 mM) was added to the chamber until reproducible maximal contractions were maintained. […] Cumulative additions of compounds were added to the chamber. Between concentration-response curves, the chambers were rinsed with fresh Krebs buffer, 40 mM KCl was administered to determine the maximum contraction, and the vessels were rinsed. Consecutive concentration-response curves were performed with 14,15-EET followed by a concentration-response curve to a compound. The experiment was always repeated with the order of the agonists reversed. […] The relaxation was plotted versus compound concentration and the EC50 determined utilizing statistical software.

Human recombinant sEH = Human recombinant sEH (Homo sapiens (Human), UniProt P34913); test: Soluble epoxide hydrolase inhibition (PHOME fluorescent substrate); format: biochemical; settings: Table 1 head prints μM (Table 2 prints nM for same numbers); read-out: sEHi IC50
Human recombinant sEH, sequence (P34913 whole entry): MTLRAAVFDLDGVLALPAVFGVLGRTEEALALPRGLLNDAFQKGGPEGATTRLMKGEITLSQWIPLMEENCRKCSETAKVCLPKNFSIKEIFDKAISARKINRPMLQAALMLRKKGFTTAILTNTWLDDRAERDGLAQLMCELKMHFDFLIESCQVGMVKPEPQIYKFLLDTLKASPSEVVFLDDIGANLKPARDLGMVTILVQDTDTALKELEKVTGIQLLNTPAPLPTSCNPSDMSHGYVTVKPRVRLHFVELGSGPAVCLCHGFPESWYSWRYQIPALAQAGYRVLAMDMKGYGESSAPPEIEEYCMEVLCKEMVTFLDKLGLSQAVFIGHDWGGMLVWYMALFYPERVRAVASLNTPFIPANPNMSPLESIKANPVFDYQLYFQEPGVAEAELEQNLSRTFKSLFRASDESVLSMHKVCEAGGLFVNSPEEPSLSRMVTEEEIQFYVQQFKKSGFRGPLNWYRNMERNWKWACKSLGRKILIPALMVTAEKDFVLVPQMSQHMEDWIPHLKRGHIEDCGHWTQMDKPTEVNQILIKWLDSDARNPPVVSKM
Procedure: Compounds were tested for their ability to inhibit recombinant soluble epoxide hydrolase (sEH) protein. The assay utilizes (3-Phhenyl-oxiranyl)-acetic acid cyano-(6-methoxy-naphthalen-2-yl)-methyl ester (PHOME), a sensitive substrate for sEH that can be used to monitor the activity of both human and murine enzymes. […] Human recombinant sEH was incubated with substrate and compounds ranging in concentration from 0.1 to 1000 nM.

SMILES: CCCCCNC(=O)NCCCC/C=C\CCOc1cccc2sc(NC(C)=O)nc12 [Compound 33, N-(4-(8-(3-n-Pentylureido)oct-3(Z)-enyloxy)benzo[d]thiazol-2-yl)acetamide]
- activation at 10 µM (bovine coronary artery; 10 μM, 100% relaxation = basal pre-U-46619 tension, read-out: Vascular Relax. % (10 μM)): 73%
- EC50 (bovine coronary artery; bovine coronary artery, read-out: Vascular Relax. EC50): 3.3 µM
- melting point: 113.7 to 113.8 °C
- IC50 (Human recombinant sEH): 0.282 µM
